Test results as given in PMC11110727, “Exploiting thiol-functionalized benzosiloxaboroles for achieving diverse substitution patterns – synthesis, characterization and biological evaluation of promising antibacterial agents” (RSC Medicinal Chemistry, 2024).
Converted amounts (≈) assume the structure as drawn. Where two headings read alike, the source gives them in different places.

Key:
[1] = tested on: C. parapsilosis ATCC 22019; test: Antifungal activity: MIC/MFC, disc-diffusion; assay type: cell-based; details: for MIC: Lodderomyces parapsilosis, ATCC22019; for diameter of inhibition zone: C. parapsilosis ATCC 22019, (-) = zone not observed, paper discs 9 mm
Method in brief: (§1)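 Disc-diffusion and broth MIC assays followed EUCAST and CLSI recommendations; MBC/MFC were determined per CLSI. Strains were subcultured twice before testing (bacteria on tryptic soy agar, yeasts on Sabouraud dextrose agar, 24–48 h, 30 °C). Compounds were dissolved in DMSO.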

C. tropicalis IBA 171 = test: Antifungal activity: MIC/MFC, disc-diffusion; assay type: cell-based; details: for MIC: Candida tropicalis, IBA171
Method in brief: as §1

[2] = tested on: C. guilliermondii IBA 155; test: Antifungal activity: MIC/MFC, disc-diffusion; assay type: cell-based; details: Meyerozyma guilliermondii, IBA155
Method in brief: as §1

C. tropicalis ATCC 750 = test: Antifungal activity: MIC/MFC, disc-diffusion; assay type: cell-based; details: for MIC: Candida tropicalis, ATCC750
Method in brief: as §1

C. krusei ATCC 6258 = test: Antifungal activity: MIC/MFC, disc-diffusion; assay type: cell-based; details: Pichia kudriavzevii, ATCC6258
Method in brief: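 Yeast subcultured on Sabouraud dextrose agar 24–48 h at 30 °C before testing. Disc-diffusion and MIC per EUCAST and CLSI recommendations; MFC per CLSI. Compounds dissolved in DMSO.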

E. coli ATCC 25922 = test: Antibacterial activity: MIC/MBC, MIC with PAβN, disc-diffusion; assay type: cell-based, Escherichia coli; details: for -fold reduction of MIC in the presence of PAβN: PAβN 20 μg mL^−1, MHB + 1 mM MgSO4
Method in brief: (§2)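 Read-outs are disc-diffusion zones, broth-microdilution MICs and bactericidal concentrations (MBC), following EUCAST and CLSI guidance. The efflux contribution was probed by rerunning MICs with 20 μg mL^−1 PAβN in MgSO4-supplemented (1 mM) Mueller–Hinton II broth, a ≥4-fold decrease being significant.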

K. pneumoniae ATCC 13883 = test: as above; assay type: cell-based, Klebsiella pneumoniae; details: for MIC: Klebsiella pneumoniae, ATCC13883
Method in brief: as §2

B. cepacia ATCC 25416 = test: Antibacterial activity: MIC/MBC, disc-diffusion; assay type: cell-based, Burkholderia cepacia; details: Burkholderia cepacia, ATCC25416
Method in brief: as §2

P. mirabilis ATCC 12453 = test: Antibacterial activity: MIC/MBC, MIC with PAβN, disc-diffusion; assay type: cell-based, Proteus mirabilis; details: for MIC: Proteus mirabilis, ATCC12453
Method in brief: as §2

S. marcescens ATCC 13880 = test: as above; assay type: cell-based, Serratia marcescens; details: for MIC: Serratia marcescens, ATCC13880
Method in brief: as §2

E. cloacae DSM 6234 = test: as above; assay type: cell-based, Enterobacter cloacae; details: for MIC: Enterobacter cloacae, DSM6234
Method in brief: as §2

[3] = Escherichia coli, ATCC25922, E. coli ATCC 25922, read-out: MIC
[4] = K. pneumoniae ATCC 13883, read-out: MIC
[5] = B. cepacia ATCC 25416, read-out: MIC
[6] = P. mirabilis ATCC 12453, read-out: MIC
[7] = S. marcescens ATCC 13880, read-out: MIC
[8] = E. cloacae DSM 6234, read-out: MIC

SMILES	MIC ([1]; read-out: MIC)	MIC (C. tropicalis IBA 171; read-out: MIC)	MIC ([2]; read-out: MIC)	MIC (C. tropicalis ATCC 750; read-out: MIC)	MIC (C. krusei ATCC 6258; read-out: MIC)	MIC (E. coli ATCC 25922; [3])	MIC (K. pneumoniae ATCC 13883; [4])	MIC (B. cepacia ATCC 25416; [5])	MIC (P. mirabilis ATCC 12453; [6])	MIC (S. marcescens ATCC 13880; [7])	MIC (E. cloacae DSM 6234; [8])	also measured
C[Si]1(C)OB(O)c2cc(F)c(SCCC(N)=O)c(F)c21 [Compound 7, 3-((5,7-Difluoro-3-hydroxy-1,1-dimethyl-1,3-dihydrobenzo[c][1,2,5]oxasilaborol-6-yl)thio)propanamide]	> 400 µg/mL	> 400 µg/mL	> 400 µg/mL	> 400 µg/mL	> 400 µg/mL	> 400 µg/mL	> 400 µg/mL	> 400 µg/mL	> 400 µg/mL	> 400 µg/mL	> 400 µg/mL	-fold reduction of MIC in the presence of PAβN (E. coli ATCC 25922; E. coli ATCC 25922): 4 -fold
C[Si]1(C)OB(O)c2cc(F)c(SC3CC(=O)NC3=O)c(F)c21 (stereo not shown) [Compound 12, 3-((5,7-Difluoro-3-hydroxy-1,1-dimethyl-1,3-dihydrobenzo[c][1,2,5]oxasilaborol-6-yl)thio)pyrrolidine-2,5-dione]	> 400 µg/mL	> 400 µg/mL	> 400 µg/mL	> 400 µg/mL	> 400 µg/mL	50 µg/mL (≈ 146 µM)	400 µg/mL (≈ 1170 µM)	> 400 µg/mL	> 400 µg/mL	200 µg/mL (≈ 583 µM)	> 400 µg/mL	diameter of inhibition zone (E. coli ATCC 25922; E. coli ATCC 25922, (-) = zone not observed, paper discs 9 mm): 17 mm; MBC (E. coli ATCC 25922; Escherichia coli, ATCC25922, E. coli ATCC 25922): 200 µg/mL (≈ 583 µM); diameter of inhibition zone (K. pneumoniae ATCC 13883; K. pneumoniae ATCC 13883, (-) = zone not observed, paper discs 9 mm): 17 mm; -fold reduction of MIC in the presence of PAβN (K. pneumoniae ATCC 13883; K. pneumoniae ATCC 13883, PAβN 20 μg mL^−1, MHB + 1 mM MgSO4): 4 -fold; diameter of inhibition zone (P. mirabilis ATCC 12453; P. mirabilis ATCC 12453, (-) = zone not observed, paper discs 9 mm): 14 mm; -fold reduction of MIC in the presence of PAβN (P. mirabilis ATCC 12453; P. mirabilis ATCC 12453, PAβN 20 μg mL^−1, MHB + 1 mM MgSO4): 4 -fold; diameter of inhibition zone (S. marcescens ATCC 13880; S. marcescens ATCC 13880, (-) = zone not observed, paper discs 9 mm): 28 mm; -fold reduction of MIC in the presence of PAβN (S. marcescens ATCC 13880; S. marcescens ATCC 13880, PAβN 20 μg mL^−1, MHB + 1 mM MgSO4): 2 -fold; -fold reduction of MIC in the presence of PAβN (E. cloacae DSM 6234; E. cloacae DSM 6234, PAβN 20 μg mL^−1, MHB + 1 mM MgSO4): 8 -fold
C[Si]1(C)OB(O)c2ccc(SCCC(=O)OCCCCCC[n+]3ccccc3)c(F)c21 [Compound 19, 1-(6-((3-((7-Fluoro-3-hydroxy-1,1-dimethyl-1,3-dihydrobenzo[c][1,2,5]oxasilaborol-6-yl)thio)propanoyl)oxy)hexyl)pyridin-1-ium trifluoromethanesulfonate]	400 µg/mL	400 µg/mL	> 400 µg/mL	400 µg/mL	> 400 µg/mL	> 400 µg/mL	> 400 µg/mL	> 400 µg/mL	> 400 µg/mL	> 400 µg/mL	> 400 µg/mL	diameter of inhibition zone [1]: 16 mm; diameter of inhibition zone (C. tropicalis IBA 171; C. tropicalis IBA 171, (-) = zone not observed, paper discs 9 mm): 16 mm; diameter of inhibition zone (C. tropicalis ATCC 750; C. tropicalis ATCC 750, (-) = zone not observed, paper discs 9 mm): 15 mm
Cc1cc(NC(=O)CCSc2c(F)cc3c(c2F)[Si](C)(C)OB3O)no1 [Compound 11, 3-((5,7-Difluoro-3-hydroxy-1,1-dimethyl-1,3-dihydrobenzo[c][1,2,5]oxasilaborol-6-yl)thio)-N-(5-methylisoxazol-3-yl)propanamide]	> 400 µg/mL	> 400 µg/mL	> 400 µg/mL	> 400 µg/mL	> 400 µg/mL	> 400 µg/mL	> 400 µg/mL	> 400 µg/mL	> 400 µg/mL	> 400 µg/mL	> 400 µg/mL	–
C[Si]1(C)OB(O)c2ccc(SC(=O)c3ccc(C(F)(F)F)cc3)c(F)c21 [Compound 25, S-(7-Fluoro-3-hydroxy-1,1-dimethyl-1,3-dihydrobenzo[c][1,2,5]oxasilaborol-6-yl) 4-(trifluoromethyl)benzothioate]	> 50 µg/mL	50 µg/mL (≈ 125 µM)	50 µg/mL (≈ 125 µM)	> 50 µg/mL	> 50 µg/mL	> 50 µg/mL	> 50 µg/mL	> 50 µg/mL	> 50 µg/mL	> 50 µg/mL	> 50 µg/mL	–
CCOP(=O)(OCC)Sc1c(F)cc2c(c1F)[Si](C)(C)OB2O [Compound 24, S-(5,7-Difluoro-3-hydroxy-1,1-dimethyl-1,3-dihydrobenzo[c][1,2,5]oxasilaborol-6-yl) O,O-diethyl phosphorothioate]	–	–	–	–	–	–	–	–	–	–	–	MIC [1]: > 400 µg/mL; MIC (C. tropicalis IBA 171): > 400 µg/mL; MIC [2]: > 400 µg/mL; MIC (C. tropicalis ATCC 750): > 400 µg/mL; MIC (C. krusei ATCC 6258): > 400 µg/mL; MIC (E. coli ATCC 25922; Escherichia coli, ATCC25922): > 400 µg/mL; MIC (K. pneumoniae ATCC 13883): > 400 µg/mL; MIC (B. cepacia ATCC 25416): > 400 µg/mL; MIC (P. mirabilis ATCC 12453): > 400 µg/mL; MIC (S. marcescens ATCC 13880): > 400 µg/mL; MIC (E. cloacae DSM 6234): > 400 µg/mL
C[Si]1(C)OB(O)c2cc(F)c(S(=O)(=O)Nc3ccc(F)cc3)c(F)c21 [Compound 28, 5,7-Difluoro-N-(4-fluorophenyl)-3-hydroxy-1,1-dimethyl-1,3-dihydrobenzo[c][1,2,5]oxasilaborole-6-sulfonamide]	> 400 µg/mL	> 400 µg/mL	> 400 µg/mL	> 400 µg/mL	> 400 µg/mL	> 400 µg/mL	> 400 µg/mL	> 400 µg/mL	> 400 µg/mL	> 400 µg/mL	> 400 µg/mL	-fold reduction of MIC in the presence of PAβN (E. coli ATCC 25922; E. coli ATCC 25922): 4 -fold
C[Si]1(C)OB(O)c2cc(F)c(SCCC(=O)OCCCCCC[n+]3ccccc3)c(F)c21 [Compound 18, 1-(6-((3-((5,7-difluoro-3-hydroxy-1,1-dimethyl-1,3-dihydrobenzo[c][1,2,5]oxasilaborol-6-yl)thio)propanoyl)oxy)hexyl)pyridin-1-ium trifluoromethanesulfonate]	400 µg/mL	400 µg/mL	> 400 µg/mL	400 µg/mL	> 400 µg/mL	> 400 µg/mL	> 400 µg/mL	> 400 µg/mL	> 400 µg/mL	> 400 µg/mL	> 400 µg/mL	diameter of inhibition zone [1]: 14 mm
CC(=O)CCSc1c(F)cc2c(c1F)[Si](C)(C)OB2O [Compound 3, 4-((5,7-Difluoro-3-hydroxy-1,1-dimethyl-1,3-dihydrobenzo[c][1,2,5]oxasilaborol-6-yl)thio)butan-2-one]	100 µg/mL (≈ 316 µM)	400 µg/mL (≈ 1260 µM)	200 µg/mL (≈ 632 µM)	> 400 µg/mL	200 µg/mL (≈ 632 µM)	> 400 µg/mL	> 400 µg/mL	> 400 µg/mL	> 400 µg/mL	> 400 µg/mL	> 400 µg/mL	–
C[Si]1(C)OB(O)c2ccc(S)c(F)c21 [Compound 2e, 7-Fluoro-6-mercapto-1,1-dimethylbenzo[c][1,2,5]oxasilaborol-3(1H)-ol]	> 100 µg/mL	> 100 µg/mL	> 100 µg/mL	> 100 µg/mL	> 100 µg/mL	> 100 µg/mL	> 100 µg/mL	> 100 µg/mL	> 100 µg/mL	> 100 µg/mL	> 100 µg/mL	–
C[Si]1(C)OB(O)c2cc(F)c(SCCC(=O)Nc3ncccn3)c(F)c21 [Compound 9, 3-((5,7-Difluoro-3-hydroxy-1,1-dimethyl-1,3-dihydrobenzo[c][1,2,5]oxasilaborol-6-yl)thio)-N-(pyrimidin-2-yl)propanamide]	> 400 µg/mL	> 400 µg/mL	> 400 µg/mL	> 400 µg/mL	> 400 µg/mL	> 400 µg/mL	> 400 µg/mL	> 400 µg/mL	> 400 µg/mL	> 400 µg/mL	> 400 µg/mL	–
